According to patent publication US20240245770A1, “COMPOSITIONS AND METHODS FOR TREATING NEUROMUSCULAR DISORDERS” (The Regents of the University of California, priority 2019, published 2024):

System: serum cytokine/chemokine/growth factor/ligands of ALS patient
Assay: Serum Luminex, before and after NAC treatment
Assay type: in vivo, human
Procedure: (§1) Serum Luminex. Serum from patients were used to determine the levels of cytokine/chemokine/growth factor/ligands secretion using multiplex luminex assay. Scatter plot was prepared using the levels of cytokine/chemokine/growth factor/ligands in serum obtained at different dates from patients as compared to controls.
Serum Luminex. Serum from patients were used to determine the levels of cytokine/chemokine/growth factor/ligands secretion using multiplex luminex assay.
as §1

[1] = H110 RS post NAC (second line, continues Table 138A)
[2] = JC sera Apr. 5, 2020 (NAC infusion)
[3] = JC sera Apr. 16, 2020 (NAC infusion)
[4] = JC sera Apr. 23, 2020 (NAC infusion)

With `CC(=O)N[C@@H](CS)C(=O)O` [NAC, N-Acetyl-Cysteine] the “IFN-g, ALS patient compared to healthy twin” value (41 plex after NAC) was 1.6, the “IL-2, ALS patient compared to healthy twin” value (41 plex after NAC) was 0.9 and the “IL-4, ALS patient compared to healthy twin” value (41 plex after NAC) was 1.1. For the same compound, the “IL-10, ALS patient compared to healthy twin” value (41 plex after NAC) was 0.95, the “IL-12 p70, ALS patient compared to healthy twin” value (41 plex after NAC) was 1.3 and the “IL-13, ALS patient compared to healthy twin” value (41 plex after NAC) was 0.99. The “TNF-a, ALS patient compared to healthy twin” value (41 plex after NAC) was 2.2, the Franktalkine (After NAC, Ave JC 4/5 to 6/24) was 34.8 and the GM-CSF (After NAC, Ave JC 4/5 to 6/24) was 68.8. It also gave an IL-4 (After NAC, Ave JC 4/5 to 6/24) of 12.8, an IL-23 (After NAC, Ave JC 4/5 to 6/24) of 125.6 and an ITAC (After NAC, Ave JC 4/5 to 6/24) of 13.34. For the same compound, the MIP-1b (After NAC, Ave JC 4/5 to 6/24) was 21.6, the IFNg (Ave JC 4/5 to 6/24) was 7.25 and the IL-1b (Ave JC 4/5 to 6/24) was 0.82. For the same compound, the IL-2 (Ave JC 4/5 to 6/24) was 1.45, the IL-6 (Ave JC 4/5 to 6/24) was 1.9 and the IL-7 (Ave JC 4/5 to 6/24) was 5.7. It also gave an IL-8 (Ave JC 4/5 to 6/24) of 4.4, an IL-10 (Ave JC 4/5 to 6/24) of 7.8 and an IL-12p70 (Ave JC 4/5 to 6/24) of 2. It also gave an IL-13 (Ave JC 4/5 to 6/24) of 4.32, an IL-17A (Ave JC 4/5 to 6/24) of 4 and an IL-21 (Ave JC 4/5 to 6/24) of 0.7. The MIP-1a (Ave JC 4/5 to 6/24) was 11.5, the MIP-3a (Ave JC 4/5 to 6/24) was 8.1 and the TNFa (Ave JC 4/5 to 6/24) was 8.2 pg/mL. For the same compound, the Franktalkine (Ave JC sera for NAC infusion) was 34.8 pg/mL, the GM-CSF (Ave JC sera for NAC infusion) was 68.8 pg/mL and the IFNg (Ave JC sera for NAC infusion) was 7.25 pg/mL. It also gave an IL-1b (Ave JC sera for NAC infusion) of 0.82 pg/mL, an IL-2 (Ave JC sera for NAC infusion) of 1.45 pg/mL and an IL-4 (Ave JC sera for NAC infusion) of 12.8 pg/mL. For the same compound, the IL-6 (Ave JC sera for NAC infusion) was 1.9 pg/mL, the IL-7 (Ave JC sera for NAC infusion) was 5.7 pg/mL and the IL-8 (Ave JC sera for NAC infusion) was 4.4 pg/mL. It also gave an IL-10 (Ave JC sera for NAC infusion) of 7.8 pg/mL, an IL-12p70 (Ave JC sera for NAC infusion) of 2 pg/mL and an IL-13 (Ave JC sera for NAC infusion) of 4.32 pg/mL. For the same compound, the IL-17A (Ave JC sera for NAC infusion) was 4 pg/mL, the IL-21 (Ave JC sera for NAC infusion) was 0.7 pg/mL and the IL-23 (Ave JC sera for NAC infusion) was 125.6 pg/mL. The ITAC (Ave JC sera for NAC infusion) was 13.34 pg/mL, the MIP-1a (Ave JC sera for NAC infusion) was 11.5 pg/mL and the MIP-1b (Ave JC sera for NAC infusion) was 21.6 pg/mL. It also gave an MIP-3a (Ave JC sera for NAC infusion) of 8.1 pg/mL, a TNFa (Ave JC sera for NAC infusion) of 8.2 pg/mL and a CMD [1] of 1391 pg/mL. It also gave a GRO [1] of 2246 pg/mL, an IFNg [1] of 20.14 pg/mL and an IL-1Ra [1] of 247.51 pg/mL. For the same compound, the IL-1a [1] was 43.39 pg/mL, the IL-1b [1] was 6.64 pg/mL and the IL-3 [1] was 7.88 pg/mL. The IL-4 [1] was 53.81 pg/mL, the IL-5 [1] was 38.12 pg/mL and the IL-6 [1] was 23.49 pg/mL. For the same compound, the IL-7 [1] was 21.7 pg/mL, the IL-8 [1] was 16.64 pg/mL and the IL-9 [1] was 16.88 pg/mL. It also gave an IL-10 [1] of 97.95 pg/mL, an IL-12p40 [1] of 82.26 pg/mL and an IL-12p70 [1] of 13.65 pg/mL. The IL-13 [1] was 33.66 pg/mL, the IL-15 [1] was 23.97 pg/mL and the IL-17a [1] was 12.34 pg/mL. For the same compound, the IP-10 [1] was 646.43 pg/mL, the L-2 [1] was 14.54 pg/mL and the MCP1 [1] was 846.7 pg/mL. The MCP3 [1] was 16.88 pg/mL, the MIP1a [1] was 17.37 pg/mL and the MIP1b [1] was 34.07 pg/mL. The PDGF-AB/BB [1] was 23823 pg/mL, the PDGFaa [1] was 8654 pg/mL and the Rantes [1] was 9480 pg/mL. It also gave a TNFa [1] of 30.58 pg/mL, a TNFb [1] of 6.89 pg/mL and a VEGF [1] of 247.51 pg/mL. It also gave a sCD40L [1] of 3545 pg/mL, an EGF (H110 RS post NAC, Aug. 8, 2019) of 21.91 pg/mL and an Eotaxin (H110 RS post NAC, Aug. 8, 2019) of 116.77 pg/mL. It also gave an FGF2 (H110 RS post NAC, Aug. 8, 2019) of 44.55 pg/mL, an FIT3L (H110 RS post NAC, Aug. 8, 2019) of 15.11 pg/mL and a Fractalkine (H110 RS post NAC, Aug. 8, 2019) of 61.83 pg/mL. It also gave a GCSF (H110 RS post NAC, Aug. 8, 2019) of 6131 pg/mL, a GMCSF (H110 RS post NAC, Aug. 8, 2019) of 26.68 pg/mL and an IFNa2 (H110 RS post NAC, Aug. 8, 2019) of 31.31 pg/mL. The TGFa (H110 RS post NAC, Aug. 8, 2019) was 22.12 pg/mL, the IL-2 (JC sera Apr. 5, 2020) was 0.14 pg/mL and the IL-4 (JC sera Apr. 5, 2020) was 18.46 pg/mL. For the same compound, the IL-5 (JC sera Apr. 5, 2020) was 2.64 pg/mL, the IL-6 (JC sera Apr. 5, 2020) was 2.74 pg/mL and the IL-7 (JC sera Apr. 5, 2020) was 5.61 pg/mL. For the same compound, the IL-8 (JC sera Apr. 5, 2020) was 5.32 pg/mL, the IL-21 (JC sera Apr. 5, 2020) was 0.82 pg/mL and the IL-23 (JC sera Apr. 5, 2020) was 144.83 pg/mL. For the same compound, the MIP-1a (JC sera Apr. 5, 2020) was 11.35 pg/mL, the MIP-1b (JC sera Apr. 5, 2020) was 24.47 pg/mL and the TNFa (JC sera Apr. 5, 2020) was 9.39 pg/mL. It also gave a Franktalkine [2] of 39.54 pg/mL, a GM-CSF [2] of 91.74 pg/mL and an IFNg [2] of 11.6 pg/mL. It also gave an IL-1b [2] of 0.87 pg/mL, an IL-10 [2] of 8.12 pg/mL and an IL-12p70 [2] of 2.32 pg/mL. For the same compound, the IL-13 [2] was 4.83 pg/mL, the IL-17A [2] was 6.07 pg/mL and the ITAC [2] was 18.73 pg/mL. It also gave an MIP-3a [2] of 11.35 pg/mL, an IL-2 (JC sera Apr. 16, 2020) of 0.32 pg/mL and an IL-4 (JC sera Apr. 16, 2020) of 11.22 pg/mL. It also gave an IL-5 (JC sera Apr. 16, 2020) of 2.21 pg/mL, an IL-7 (JC sera Apr. 16, 2020) of 4.9 pg/mL and an IL-8 (JC sera Apr. 16, 2020) of 3.55 pg/mL. The IL-21 (JC sera Apr. 16, 2020) was 0.62 pg/mL, the IL-23 (JC sera Apr. 16, 2020) was 116.26 pg/mL and the MIP-1a (JC sera Apr. 16, 2020) was 10.8 pg/mL. The MIP-1b (JC sera Apr. 16, 2020) was 18.56 pg/mL, the TNFa (JC sera Apr. 16, 2020) was 7.45 pg/mL and the Franktalkine [3] was 33.33 pg/mL. For the same compound, the GM-CSF [3] was 54.8 pg/mL, the IFNg [3] was 7.11 pg/mL and the IL-1b [3] was 0.65 pg/mL. The IL-10 [3] was 4.47 pg/mL, the IL-12p70 [3] was 2.1 pg/mL and the IL-13 [3] was 4.44 pg/mL. The IL-17A [3] was 3.15 pg/mL, the ITAC [3] was 11.26 pg/mL and the MIP-3a [3] was 5.58 pg/mL. The IL-2 (JC sera Apr. 23, 2020) was 5.42 pg/mL, the IL-4 (JC sera Apr. 23, 2020) was 15.94 pg/mL and the IL-5 (JC sera Apr. 23, 2020) was 2.21 pg/mL. The IL-7 (JC sera Apr. 23, 2020) was 6.39 pg/mL, the IL-8 (JC sera Apr. 23, 2020) was 3.72 pg/mL and the IL-21 (JC sera Apr. 23, 2020) was 0.68 pg/mL. The IL-23 (JC sera Apr. 23, 2020) was 132.6 pg/mL, the MIP-1a (JC sera Apr. 23, 2020) was 11.24 pg/mL and the MIP-1b (JC sera Apr. 23, 2020) was 16.32 pg/mL. It also gave a TNFa (JC sera Apr. 23, 2020) of 7.45 pg/mL, a Franktalkine [4] of 34.75 pg/mL and a GM-CSF [4] of 84.17 pg/mL. The IFNg [4] was 6.15 pg/mL, the IL-1b [4] was 0.77 pg/mL and the IL-10 [4] was 6 pg/mL. The IL-12p70 [4] was 2 pg/mL, the IL-13 [4] was 4.17 pg/mL and the IL-17A [4] was 2.78 pg/mL. The ITAC [4] was 10.71 pg/mL, the MIP-3a [4] was 6.78 pg/mL and the IL-2 (JC sera Apr. 30, 2020) was 0.06 pg/mL. For the same compound, the IL-4 (JC sera Apr. 30, 2020) was 14.43 pg/mL.
